Assay results published in patent US9233913B2, “Amino acid derivatives for the treatment of neuropathic pain” (priority 2009, dated 2016).
Like-named read-outs stand apart in the source and are kept apart here.

Assays:
[1] = biological target: T1, Gabapentin binding site (Rattus norvegicus, UniProt P54290); details: Method 1, rat brain membranes, 3H-gabapentin; for % inhibition 1 μM: compound 1 μM; for % inhibition 10 μM: compound 10 μM
Description: Materials: Gabapentin is from TRC, [^3H]-Gabapentin is from GE Healthcare, and Meltilex A sheets (melt-on scintillator sheets) are from Perkin Elmer. Rat brain membranes are prepared in-house by conventional methods.
All solutions are prepared for the assay just before use, except for the membrane dilution. […] The final compound concentration in the assay is 1, 10 and 100 μM. The same is done with a solution not containing the test articles as control. The test plate is then incubated for 30 minutes at room temperature with agitation. The binding reaction is terminated using a Tomtec cell harvester machine (Mach III M-FP-1). A meltilex sheet is placed on the filtermat (harvest from the assay) and is allowed to melt in the oven at 65° C. for 1 to 4 min. The filter is inserted in the plastic pouch, which is sealed and allowed to cool for 1 h before counting with a Microbeta Trilux counter (Perkin Elmer).
Results are calculated using the count per minutes (CPM) obtained for each sample with the Trilux. The CPM obtained for the control diluent represents the 100% binding of ^3H-Gabapentin to membrane. The CPM obtained for the control gabapentin 100 μM represents the 0% binding. The % of binding for each compound is calculated by the formula: […]

[2] = Pharmacokinetic profile in mice; format: in vivo; details: mouse, plasma, read-out: Bioavailability (% F)
Description: Compounds are tested for pharmacokinetic profile, including oral bioavailability in mice using the following procedure. Bioavailability estimates are performed after administration of 100 mg/kg of Compound 6B and 50 mg/kg of Compound 18 either Intravenously (IV) or orally (PO). Four animals per time point, per mode of administration are used. At each specific time point following drug administration, a blood sample is collected terminally (under isoflurane anesthesia) via cardiac puncture from each the 4 animals. Samples are collected at pre-dose and at 5, 15, 30, and 60 minutes and at 2, 4, 6, 8, 14 and 24 hours post oral administration and at pre-dose and 2, 5, 15, 30, and 60 minutes and 2, 4, 8, 14 and 24 hours post intravenous administration. Blood samples are collected into tubes containing K3-EDTA as anticoagulant, kept on ice until centrifugation at 4° C. at a minimum speed of 3000 rpm (1620G) for 10 min. Plasma samples are harvested into polypropylene tubes, immediately placed on dry ice and stored at −80° C.
Compounds in mouse plasma are extracted using protein precipitation. Quantitation of the compounds in mouse plasma matrix is achieved using LC-MS detection. Sample concentration is calculated using a calibration curve. FIGS. 3A and 3B show mouse PK curves in log scale for Compounds 6B and 18 respectively. […]

[3] = biological target: T1, Gabapentin binding site; assay: [3H]-gabapentin binding assay, Method 2 (crude rat brain membranes); details: 20 nM [3H]-gabapentin; for % inhibition 1 μM: compound 1 μM; for % inhibition 10 μM: compound 10 μM
Description: Membrane preparation: cortices from 5 rats were homogenized in a 0.32 M sucrose solution containing 10 mM HEPES/KOH. Suspensions were centrifuged for 10 minutes at 2500×g and the supernatants were centrifuged at 48000×g for 20 minutes. […] The final pellets were re-suspended in 10 mM HEPES/KOH. Protein concentration was determined using a BCA kit from Pierce (Rockford, Ill.). The quality of the preparation was assessed in a binding assay to gabapentin.
Binding assay: in 96-well plates, the selected compounds were incubated in 10 mM HEPES/KOH pH 7.4 at concentrations of 10 and 1 μM for 30 minutes at room temperature in the presence of 20 nM [^3H]-gabapentin and rat brain membranes (300 μg/mL of proteins). Radioactivity was assessed after filtration with the Tomtec cell harvester using a glass fiber filter A. Counts were obtained using the Microbeat Trilux counter.
[formula] wherein: [total binding]s is the total binding of [^3H]-gabapentin in the presence of the compound; [non-specific binding]c is the non specific binding of [^3H]-gabapentin in the presence of 100 μM cold gabapentin (c=control); and [total binding]c is the total binding of [^3H]-gabapentin alone.

[4] = Pharmacokinetic profile in dogs; format: in vivo; details: one female Beagle dog
Description: The pharmacokinetic profile of Compound 18 is evaluated in one female Beagle dog. One single oral and one single IV dose of 25 mg/kg separated by a wash-out period are administered to the dog to get key preliminary information about the pharmacokinetics and oral bioavailability of Compound 18.

[5] = test system: metrazole-induced clonic convulsions and mortality; assay: Metrazole-induced convulsions model; details: metrazole 100 mg/kg, 100% = score 9
[6] = test system: Diet-Induced Obesity (DIO) mouse model; assay: Diet-Induced Obesity (DIO) mouse model: glycemia, insulin, body weight; format: in vivo; details: DIO mice; 100 mg/kg BID oral gavage, 7 days
Description: The objective of this study is to determine the effect of the compounds of the invention, namely Compounds 6A, 6B and 18, glycemia, insulin and body weight gain in a Diet-Induced Obesity (DIO) mouse model. Results are compared with (2S,3R,4S)-4-hydroisoleucine (positive control) and vehicle (negative control).
C57BL/6 mice are tested at 17-18 weeks of age and fed a high fat diet (60% of calories from fat) for 8 weeks. Fasted glycemia and body weight values are used to randomize the mice into control and treatment groups (n=8). The animals are treated twice dally (BID) (once on 7th day) by oral gavage with 4-hydroxyisoleucine, Compounds 6A, 6B and 18 (100 mg per kg of body weight), and the control group receive vehicle (water) alone. The animals are treated for 7 days.
Oral glucose Tolerance Test (OGTT) is performed at 5 hours±30 minutes Post starvation (day 0 only) or Post AM test article administration (for day 7). Blood samples are collected via tail vein for glucose determination prior to glucose challenge (Pre-OGTT) and at 5, 10, 20, 30, 60, 90 and 120 minutes post-glucose administration. Glucose determination is perfomed using a hand held glucometer (Model OneTouch Ultra, LifeScan).
A second blood sample is also collected Pre-OGTT and at 5, 10, 60 and 120 minutes Post-OGTT for insulin determination. Insulin determination is done using an enzyme Immunoassay kit (Mecodia Ultrasensitive Mouse Insulin ELISA, ALPCO Diagnostics, Wndham, N.H.).
Body weight of the mice is measured at arrival, randomization, and on days 0, 3 and 7 of treatment. At the end of the study, the epididymal fat pads were isolated and weighed. Data are expressed as mean±SEM of body weight and mean±SEM of fat pad weight.

T1 sequence (P54290 25-1091): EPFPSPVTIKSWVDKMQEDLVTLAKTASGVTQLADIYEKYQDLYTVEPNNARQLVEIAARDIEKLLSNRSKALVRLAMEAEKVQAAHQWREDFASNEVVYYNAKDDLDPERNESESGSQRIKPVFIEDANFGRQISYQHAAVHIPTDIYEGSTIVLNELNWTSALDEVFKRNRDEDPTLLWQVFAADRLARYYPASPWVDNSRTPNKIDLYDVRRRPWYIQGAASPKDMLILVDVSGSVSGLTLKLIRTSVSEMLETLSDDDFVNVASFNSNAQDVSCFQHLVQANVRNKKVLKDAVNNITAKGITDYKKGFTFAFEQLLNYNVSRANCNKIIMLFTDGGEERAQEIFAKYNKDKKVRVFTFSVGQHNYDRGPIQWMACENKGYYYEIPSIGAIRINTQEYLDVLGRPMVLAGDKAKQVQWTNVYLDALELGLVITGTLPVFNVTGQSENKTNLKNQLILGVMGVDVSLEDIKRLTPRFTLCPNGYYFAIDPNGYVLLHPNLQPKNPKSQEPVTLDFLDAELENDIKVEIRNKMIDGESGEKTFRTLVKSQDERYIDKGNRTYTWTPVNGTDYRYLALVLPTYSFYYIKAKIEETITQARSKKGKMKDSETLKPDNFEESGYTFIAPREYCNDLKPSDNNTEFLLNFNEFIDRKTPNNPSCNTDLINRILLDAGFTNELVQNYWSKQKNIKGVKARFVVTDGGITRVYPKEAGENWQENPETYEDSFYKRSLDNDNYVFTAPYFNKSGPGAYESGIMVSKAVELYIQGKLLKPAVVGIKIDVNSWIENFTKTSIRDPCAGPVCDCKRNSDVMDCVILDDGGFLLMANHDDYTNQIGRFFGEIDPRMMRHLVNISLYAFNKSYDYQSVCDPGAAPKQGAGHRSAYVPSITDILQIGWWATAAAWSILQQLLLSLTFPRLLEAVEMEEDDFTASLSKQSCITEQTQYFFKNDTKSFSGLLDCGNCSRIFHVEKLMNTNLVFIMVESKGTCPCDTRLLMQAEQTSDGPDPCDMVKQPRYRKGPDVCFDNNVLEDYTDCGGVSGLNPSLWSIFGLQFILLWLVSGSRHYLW

SMILES | % inhibition 1 μM [1] | % inhibition 10 μM [1] | % inhibition 1 μM [3] | % inhibition 10 μM [3] | effect on glycemia compared to control [6] | other results
C[C@@H]([C@H](C)O)[C@H](N)C(=O)O [Compound 4-HO-Ile, (2S,3R,4S) 4-hydroxyisoleucine, reference compound] | 13% | 51% |  |  |  | 
N[C@H](C(=O)O)[C@@H]1CCCC[C@H]1O [Compound 18] | 87% | 90% | 21% (±3) | 6% (±1) | no effect | bioavailability ([2]; 50 mg/kg IV or PO): 88.4%; bioavailability ([4]; in vivo, 25 mg/kg oral and IV): 97%; absorption following oral administration ([4]; 25 mg/kg oral): rapidly and very well absorbed; first pass effect ([4]; 25 mg/kg oral): does not demonstrate any significant first pass effect; terminal half live ([4]; 25 mg/kg single dose): around 7 hours; % Prevention of convulsions in mice ([5]; dose 200 mg/kg): 67%
N[C@@H](C[C@@H]1CCCO1)C(=O)O [Compound 8] |  |  | 11% (±1) | 0% (±2) | neutral or beneficial effect | bioavailability ([2]; 100 mg/kg IV or PO): ~100%; effect on insulin compared to control [6]: neutral or beneficial effect
CN1C(=O)CN=C(c2ccccc2)c2cc(Cl)ccc21 [Diazepam, diazepam] |  |  |  |  |  | % Prevention of convulsions in mice ([5]; dose 1 mg/kg): 67%
N[C@@H](Cc1ccco1)C(=O)O [(2S)-Compound, (2S)-3-(2-furyl)alanine] |  |  | 61% (±8) | 16% (±3) |  | 
N[C@@H](CC1CCCO1)C(=O)O (stereo partly shown) [Compound 6] | 82% | 92% |  |  |  | 
NCC1(CC(=O)O)CCCCC1 [Gabapentin] |  |  |  |  |  | % Prevention of convulsions in mice ([5]; dose 100 mg/kg): 67%
N[C@@H](C[C@H]1CCCO1)C(=O)O [Compound 7] |  |  | 19% (±4) | 1% (±1) | neutral or beneficial effect | effect on insulin compared to control [6]: neutral or beneficial effect
